Earlier results as cited in the CATMoS acute toxicity set (Mansouri et al. 2021).
Where “and” joins values, the source holds several entries; their conditions need not be identical. Equal entries are not always repeated.

Experiment: rat acute oral toxicity
Details: in vivo

Row | SMILES | LD50
1 | S=c1[nH]c(=S)[nH]c(=S)[nH]1 | 9500 mg/kg
2 | COP(=S)(OC)SCSCCOC(N)=O | 44 mg/kg
3 | O=[N+]([O-])c1cccc2nc3ccccc3c(NCCN(CCO)CCO)c12 | 176 mg/kg
4 | O=C(COc1ccc(Cl)cc1)N1CCN(Cc2ccc3c(c2)OCO3)CC1 | 4480 mg/kg
5 | Oc1ccc(O)c2[nH]c(C(F)(F)F)nc12 | 29 mg/kg
6 | CNC(=O)Oc1cc(C)c(C)cc1Cl | 30 mg/kg
7 | CCCCNS(=O)(=O)c1ccccc1 | 2050 mg/kg
8 | Clc1ccc(CO/N=C(\Cn2ccnc2)c2ccc(Cl)cc2Cl)c(Cl)c1 | 2460 mg/kg
9 | CN(C)C(CSC(N)=O)CSC(N)=O | 250 mg/kg and 225 mg/kg
10 | Cc1nc2cnc3ccccc3c2s1 | 900 mg/kg and 950 mg/kg
11 | CCCCN1CCOCC1 | 338 mg/kg
12 | COc1ccc2c(c1)N(CCC1CCCCN1C)c1ccccc1S2 (stereo not given) | 1130 mg/kg
13 | O=C(C=Cc1ccccn1)OCCN1CCN(c2ccc(Cl)cc2)CC1 | 478 mg/kg
14 | O=C(O)C1=CC(=CC=[N+]2C(C(=O)O)=Cc3cc(O)c(O)cc32)CC(C(=O)[O-])N1 (stereo not given) | 3140 mg/kg
15 | CC1CC2OC2CC1COC(=O)CCCCC(=O)OCC1CC2OC2CC1C (stereo not given) | 4290 mg/kg
16 | O=C(O)C=CC(=O)O | 8000 mg/kg and 3380 mg/kg
17 | CC(=O)C(c1ccccc1)N1CCN(CCOc2ccccc2)CC1 (stereo not given) | 800 mg/kg
18 | Oc1c(Cl)cc(Cl)c(Cl)c1Cc1c(O)c(Cl)cc(Cl)c1Cl | 59.2 mg/kg
19 | CCOP(=O)(OCC)SCn1nc(C)oc1=O | 1 mg/kg
20 | C=Cc1ccc(OCC2CO2)cc1 (stereo not given) | 1000 mg/kg
21 | CCN(CC)CCc1nc(-c2ccccc2)no1 | 1650 mg/kg
22 | COC(=O)C1=C(C)NC(C)=C(C(=O)OCC(C)(C)CN(C)Cc2ccccc2)C1c1cc([N+](=O)[O-])ccc1F (stereo not given) | 30.5 mg/kg
23 | CCCCC(O)C(N)CC (stereo not given) | 550 mg/kg
24 | CCCCC[Si](OCC)(OCC)OCC | 20000 mg/kg
25 | COC1CCC=CO1 (stereo not given) | 1410 mg/kg

Row | SMILES | LD50
26 | COc1ccc2c(c1)c(CC(=O)OC/C=C(\C)CC/C=C(\C)CCC=C(C)C)c(C)n2C(=O)c1ccc(Cl)cc1 | 1680 mg/kg
27 | COc1cc(C(=O)N2CCCCCCC2)cc(OC)c1OC | 130 mg/kg
28 | ClCCC[Si](Cl)(Cl)Cl | 200 mg/kg
29 | CO[Si](CCCCCCCCCC[Si](OC)(OC)OC)(OC)OC | 2200 mg/kg
30 | CC(F)(F)C(F)(F)C(F)(F)C(O)(F)F | 1110 mg/kg
31 | CC(=O)Nc1cc(Cl)c([N+](=O)[O-])cc1Cl | 2830 mg/kg
32 | CNC(=O)Oc1ccccc1C(OC)OC | 160 mg/kg
33 | CCCC(C)(COC(N)=O)COC(=O)NC(C)C (stereo not given) | 1320 mg/kg
34 | CC(=O)Nc1ccc(OC(=O)c2ccccc2OC(C)=O)cc1 | 3500 mg/kg
35 | Cc1ccccc1NCCO | 2200 mg/kg
36 | CS(=O)(=O)c1ccc(-c2cn3ccccc3n2)cc1 | 3710 mg/kg
37 | Nc1nc2cc(I)ccc2o1 | 1000 mg/kg
38 | CCN(N=O)C(C)C | 1100 mg/kg
39 | ClCC(Cl)=C(Cl)C(Cl)Cl | 472 mg/kg
40 | CNC(C)Cc1ccc(Cl)cc1 (stereo not given) | 110 mg/kg
41 | CCP(=S)(CC)Oc1cc(Cl)c(Cl)cc1Cl | 100 mg/kg
42 | NC(=O)c1ccc2nc(C(F)(F)F)[nH]c2c1 | 31.6 mg/kg
43 | CN1CC[C@]23c4c5ccc(O)c4O[C@H]2[C@H](N=[N+]=[N-])CC[C@H]3[C@H]1C5 | 62 mg/kg
44 | COC(=O)c1ccccc1OC | 3800 mg/kg
45 | CC(=CC(O)(C(F)(F)F)C(F)(F)F)CC(O)(C(F)(F)F)C(F)(F)F | 18 mg/kg
46 | CO[Si](OC)(OC)c1ccccc1 | 1050 mg/kg
47 | CN(C)C(=O)C(CCN1CCC(O)(c2ccc(Cl)cc2)CC1)(c1ccccc1)c1ccccc1 | 185 mg/kg and 98 mg/kg
48 | O=C1CCc2cc(C(=O)CCCN3CC=C(c4ccc(Cl)cc4)CC3)ccc2N1 | 500 mg/kg
49 | O=C(OCCCOCCCOC(=O)c1ccccc1)c1ccccc1 | 9800 mg/kg
50 | CCOP(=S)(OCC)Oc1cc(C)n(CC)c(=O)c1 | 7070 mg/kg

Row | SMILES | LD50
51 | Nc1cc(S(=O)(=O)O)cc2cc(S(=O)(=O)O)c(/N=N\c3ccc(-c4ccc(/N=N/c5c(S(=O)(=O)O)cc6cc(S(=O)(=O)O)cc(N)c6c5O)cc4)cc3)c(O)c12 | 8760 mg/kg
52 | CO[Si](CCl)(OC)OC | 500 mg/kg
53 | CNC(=O)ON=CC1(C)SC(C)C(C)S1 (stereo not given) | 2.5 mg/kg
54 | CNC(N)=NC(=N)N | 1750 mg/kg
55 | NCCNCc1ccccc1O | 3700 mg/kg
56 | OCCN(CCO)c1nc(N2CCCCC2)c2nc(N(CCO)CCO)nc(N3CCCCC3)c2n1 | 8400 mg/kg
57 | CCCOC/C(=N\c1ccc(Cl)cc1C(F)(F)F)n1ccnc1 | 715 mg/kg
58 | C1COCCOCCNCCOCCOCCN1 | 3400 mg/kg
59 | CC(N)=S | 301 mg/kg
60 | CSP(=O)(SC)SC | 30 mg/kg
61 | COC(=O)C[N+](=O)[O-] | 3770 mg/kg
62 | OCCI | 50 mg/kg
63 | CCN(COC(C)=O)N=O | 810 mg/kg
64 | CCCCCCCCCCCCCCCCCC(=O)NC(CCC(=O)O)C(=O)O (stereo not given) | 3000 mg/kg
65 | NCCCNCCNCCCN | 1200 mg/kg
66 | O=C1CCc2cc(C=CCN3CCN(c4ccc(Cl)cc4)CC3)ccc2N1 | 500 mg/kg
67 | Nc1ncnc2c1ncn2[C@@H]1O[C@H](COP(=O)(O)O)[C@@H](O)[C@H]1O | 11200 mg/kg
68 | CCOC(C1=NCC(C)(C)N1)c1ccccc1 (stereo not given) | 510 mg/kg
69 | CC(C)C(OCCO)C(C)C | 1070 mg/kg
70 | O=[N+]([O-])c1cc(C(F)(F)F)ccc1Cl | 1080 mg/kg
71 | O=NN1CCCCCC1 | 336 mg/kg
72 | COP(=S)(OC)SCn1nc(-c2ccccc2)ccc1=O | 18800 mg/kg
73 | CCCCCC(C)NC (stereo not given) | 320 mg/kg
74 | CC1=NOC(=O)/C1=N\Nc1ccccc1Cl | 126 mg/kg
75 | NC(N)=NCC=Cc1ccccc1 | 456 mg/kg

Row | SMILES | LD50
76 | CCOc1ccc(/C=C2\NCCc3cc(OCC)c(OCC)cc32)cc1OCC | 540 mg/kg
77 | NCCNCCNCc1ccccc1O | 2300 mg/kg
78 | CNC(=O)Oc1ccccc1C(C)C | 450 mg/kg
79 | O=NN(CCCl)C(O)=NC1C[C@H]2CC[C@@H]1C2 (stereo not given in full) | 83 mg/kg
80 | CCN(CC)Cc1cc(-c2ccccc2)ccc1O | 28 mg/kg
81 | COc1ccccc1 | 3700 mg/kg
82 | NC(=S)NC(=S)Nc1ccccc1 | 250 mg/kg
83 | CC[N+](CC)(CC)Cc1ccccc1 | 2220 mg/kg
84 | CNC(=O)ON=C1SCCOC1(C)C | 0.6 mg/kg
85 | O=C(O)c1ccccc1C(=O)O | 7900 mg/kg
86 | COCCO[Si](CCCl)(OCCOC)OCCOC | 878 mg/kg
87 | CN1CN(CC(=O)O)CSC1=S | 1000 mg/kg
88 | CN(C)C/C=C(/c1ccc(Br)cc1)c1cccnc1 | 900 mg/kg and 844 mg/kg
89 | CCOC(C1=NCC(C)(C)CN1)c1cccc(Cl)c1 (stereo not given) | 95 mg/kg
90 | CNc1ccc(NCCO)c2c1C(=O)c1ccccc1C2=O | 1340 mg/kg
91 | O=[N+]([O-])c1cc[n+]([O-])cc1 | 107 mg/kg
92 | Nc1ccccc1Cl | 1020 mg/kg
93 | CCCC(=O)OC(Cl)C(Cl)(Cl)Cl (stereo not given) | 1480 mg/kg
94 | CCC(C)OCCO (stereo not given) | 790 mg/kg
95 | CCCCCCS | 1250 mg/kg
96 | CCN(CC)CCOC(=O)CC(O)(c1ccccc1)c1ccccc1 | 2310 mg/kg
97 | CC(=O)OCCN(CCOC(C)=O)c1ccccc1 | 2150 mg/kg
98 | NCCCOCCOCCO | 6500 mg/kg
99 | C=CC(=O)NCC(OC)OC | 1200 mg/kg
100 | CCOP(=S)(OCC)OCCSCC | 7.5 mg/kg

Row | SMILES | LD50
101 | COP(=S)(OC)SC(C(=O)OC(C)C)c1ccccc1 (stereo not given) | 205 mg/kg
102 | Cc1c(Br)cc2[nH]c(C(F)(F)F)nc2c1[N+](=O)[O-] | 83 mg/kg
103 | CN(N=O)c1ccc(N=Nc2ccccc2)cc1 | 1200 mg/kg
104 | CC[N+](CC)(CC)CCC(O)(c1ccccc1)C1CCCCC1 (stereo not given) | 1100 mg/kg
105 | O=C(Cl)CCCCCCCCC(=O)Cl | 400 mg/kg
106 | CCOC(=O)N(C)SN(C)C(=O)O/N=C(\C)SC | 226 mg/kg
107 | CCCOC(=O)c1ccc(C(=O)OCCC)nc1 | 5230 mg/kg
108 | CCCCCCCCCCCCCCCCCOCC | 1260 mg/kg
109 | O=Cc1cccs1 | 915 mg/kg
110 | CC(=O)CO | 2200 mg/kg
111 | CC(C)OC(=O)OOC(=O)OC(C)C | 2140 mg/kg
112 | CCOc1cc(C=O)ccc1O | 1590 mg/kg
113 | CC(C)C12C=CC(C)(CC1)OO2 (stereo not given) | 200 mg/kg
114 | O=C(CCc1ccccc1)OC1=C(OC(=O)CCc2ccccc2)C(=O)OC1=O | 10000 mg/kg
115 | CC(=O)N1CCN(c2ccc(OC[C@H]3CO[C@](Cn4ccnc4)(c4ccc(Cl)cc4Cl)O3)cc2)CC1 | 166 mg/kg
116 | Cc1cccc(C#N)c1C | 3000 mg/kg
117 | CC1(C)[C@@H](OC(=O)CCC(=O)O)CC[C@]2(C)[C@H]3C(=O)C=C4[C@@H]5C[C@@](C)(C(=O)O)CC[C@]5(C)CC[C@@]4(C)[C@]3(C)CC[C@@H]12 | 2450 mg/kg
118 | O=C(C(F)(F)F)C(F)(F)Cl | 85 mg/kg
119 | CNC(=O)ON=C1CS(=O)CCS1 (stereo not given) | 12.3 mg/kg
120 | C[C@H]1O[C@@H](n2cc(F)c(=O)[nH]c2=O)[C@H](O)[C@@H]1O | 3390 mg/kg
121 | Cc1ccnc(SCCC(F)=C(F)F)n1 | 844 mg/kg
122 | CCOC(=O)[C@H](CCc1ccccc1)N[C@@H](C)C(=O)N1Cc2ccccc2C[C@H]1C(=O)O | 3540 mg/kg
123 | CSCc1cnc(C)c(O)c1CO | 4300 mg/kg
124 | CCOC(=O)CN=C=O | 1130 mg/kg
125 | CN1CCN(C2=Cc3ccccc3Oc3ccc(Cl)cc32)CC1 | 231 mg/kg

Row | SMILES | LD50
126 | CSC(=S)N(C)C | 62 mg/kg
127 | CCOC(=S)C=Cc1ccc(Cl)cc1 | 950 mg/kg
128 | CCC(CC)C(=O)OCC(Cl)(Cl)Cl | 900 mg/kg
129 | CC(C)NC1CCC(c2ccccc2)(c2ccccc2)CC1 | 623 mg/kg
130 | NC(=O)c1cc2cc(CN3CCCCC3)ccc2o1 | 250 mg/kg
131 | Cn1cc(CCc2cc[n+](CCC[N+](C)(C)C)cc2)c2ccccc21 | 200 mg/kg
132 | CC(C(O)c1ccccc1)N(C)CCC#N (stereo not given) | 940 mg/kg
133 | CC(C)(C)C(O)C(=Cc1ccc(Cl)cc1Cl)n1cncn1 (stereo not given) | 474 mg/kg
134 | CC(O)CN(C)C (stereo not given) | 1740 mg/kg
135 | CCC(=O)CC(C)CC (stereo not given) | 3500 mg/kg
136 | CCCCOCCOCCOC(=O)c1ccccc1C(=O)OCCOCCOCCCC | 9700 mg/kg
137 | N#CN | 1620 mg/kg
138 | C=CCOC(=O)Nc1ccc(NCc2ccc(F)cc2)nc1N | 1030 mg/kg
139 | CCSP(=O)(OC)OC | 13.8 mg/kg
140 | CCOP(=O)(OCC)C(SCC)(Sc1ccccc1)P(=O)(OCC)OCC | 24 mg/kg
141 | CC(C)(C)NCC(O)c1ccccc1Cl (stereo not given) | 560 mg/kg
142 | Cc1ccc(N2C(=O)C=CC2=O)cc1 | 710 mg/kg
143 | CCOP(=S)(OCC)SC(C(=O)OCCF)c1ccccc1 (stereo not given) | 5 mg/kg
144 | CCCCSC(=O)Oc1c(C(C)CC)cc([N+](=O)[O-])cc1[N+](=O)[O-] (stereo not given) | 147 mg/kg
145 | CNN | 58 mg/kg
146 | CCOC(C1=NCC(C)(C)CN1)c1ccc(Cl)cc1 (stereo not given) | 190 mg/kg
147 | ClCc1c(Cl)cc(Cl)cc1Cl | 3080 mg/kg
148 | CCC=CC=CC=O | 1150 mg/kg
149 | CN(C)CCOCCOC(=O)N1c2ccccc2Sc2ccccc21 | 1500 mg/kg
150 | CN(C)c1ccc(C=C2C(=O)N=C3c4ccccc4N=CN23)cc1 | 355 mg/kg
